The values below come from patent US8134015B2, “Compound inhibiting in vivo phosphorous transport and medicine containing the same” (Kyowa Hakko Kirin Co., Ltd., priority 2003, dated 2012).

In this assay the target is T1, rat NaPi-2b (Rattus norvegicus, UniProt Q9JJ09).
T1 construct: expressed in transfected cells; host or cells: Xenopus oocytes injected with cRNA
T1 sequence (Q9JJ09 1-695): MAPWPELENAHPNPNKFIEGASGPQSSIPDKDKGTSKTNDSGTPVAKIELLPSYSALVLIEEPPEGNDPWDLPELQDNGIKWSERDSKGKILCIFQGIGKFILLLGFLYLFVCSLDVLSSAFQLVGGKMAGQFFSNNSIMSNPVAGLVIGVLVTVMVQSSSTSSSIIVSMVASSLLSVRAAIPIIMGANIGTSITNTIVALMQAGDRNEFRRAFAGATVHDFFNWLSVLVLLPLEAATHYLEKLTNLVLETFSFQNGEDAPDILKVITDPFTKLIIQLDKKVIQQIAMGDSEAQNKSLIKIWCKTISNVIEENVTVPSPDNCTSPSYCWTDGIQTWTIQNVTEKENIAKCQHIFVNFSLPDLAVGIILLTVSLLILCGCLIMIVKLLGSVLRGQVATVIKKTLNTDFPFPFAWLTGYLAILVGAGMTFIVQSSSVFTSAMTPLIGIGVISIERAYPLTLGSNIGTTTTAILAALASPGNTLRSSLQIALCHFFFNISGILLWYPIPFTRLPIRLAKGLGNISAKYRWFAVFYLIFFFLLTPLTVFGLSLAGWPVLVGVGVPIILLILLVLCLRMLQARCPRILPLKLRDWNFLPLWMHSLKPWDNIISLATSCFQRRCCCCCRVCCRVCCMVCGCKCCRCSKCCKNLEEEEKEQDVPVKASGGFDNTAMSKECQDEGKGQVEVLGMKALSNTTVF
The experiment in a line: Sodium-dependent phosphate uptake of Xenopus oocytes which expressed NaPi-2b (32P). Format: cell-based. To be noted: for IC50: Xenopus oocytes expressing rat NaPi-2b, 32P radioactive phosphorus, read-out: IC50 (phosphate uptake inhibitory activity). The procedure:
Pharmacological Test Example 1
Experiment of Sodium-Dependent Phosphate Uptake of Xenopus oocytes which Expressed NaPi-2b
Degenerate primers were prepared from sequences of mouse NaPi-2b disclosed in Hilfiker H. et al., Pro Natl Acad Sci USA, 95 (24): 14564-14569, […] and sequences of human and rat NaPi-2a disclosed in Magagnin S. et al., Proc Natl Aca Sci USA, 90 (13): 5979-5983, 1993. RNA was extracted from the rat small intestine using ISOGEN; manufactured by NIPPON GENE CO., LTD (Japan). 400 bp gene fragments were obtained by PCR using, as a template, a cDNA library prepared with a cDNA synthesis kit (manufactured by STRATAGENE (US)). Thereafter, the above rat small intestine cDNA library was screened using the gene fragment as a probe, and the whole gene sequence of rat NaPi-2b was cloned. cRNA was synthesized from the cloned rat NaPi-2b cDNA with a cRNA synthesis kit (manufactured by Ambion (US)). The synthesized cRNA was injected into Xenopus oocytes (obtained from COPACETIC (Japan)) with a liquid microinjector (manufactured by Drummond (US)) and was cultured for 2 days to express rat NaPi-2b. Thereafter, for a group of derivatives, phosphate uptake inhibitory activity were measured using the Xenopus oocytes with ^32P radioactive phosphorus (manufactured by Daiichi Kagaku Inc. (Japan)). […] The inhibitory activity for 300 μM and 100 μM was determined from the same inhibition curve and expressed in percentage inhibition (%) in Table 5.

Molecules are shown by their SMILES.

For orientation: inhibition means the drop in the measured response relative to a control, in per cent. A low value points to a response near the control. `COc1ccc(C(=O)Nc2ccccc2C(=O)N/N=C/c2ccccc2F)cc1OC` [Compound 2, N-[2-(2-Fluoro-benzylidene-hydrazinocarbonyl)-phenyl]-3,4-dimethoxy-benzamide] returned an inhibition at 300 µM (phosphate uptake, oocytes expressing rat NaPi-2b, 300 μM, determined from inhibition curve) of 77.3%.
Broadly, the IC50 is the concentration needed to halve the response being measured. In the case of `COc1ccc(C(=O)Nc2ccccc2C(=O)N/N=C/c2ccccc2C)cc1OC` [Compound 3, 3,4-Dimethoxy-N-[2-(2-methyl-benzylidene-hydrazinocarbonyl)-phenyl]-benzamide], the IC50 worked out at 7.15 µM.
Still for that read-out and setting: for `COc1ccccc1/C=N/NC(=O)c1ccccc1NC(=O)c1ccc(OC)c(OC)c1` [Compound 4, 3,4-Dimethoxy-N-[2-(2-methoxy-benzylidene-hydrazinocarbonyl)-phenyl]-benzamide] the value was 79.9 µM.
On the same count and under the same terms, the figure for `COc1cccc(/C=N/NC(=O)c2ccccc2NC(=O)c2ccc(OC)c(OC)c2)c1` [Compound 5, 3,4-Dimethoxy-N-[2-(3-methoxy-benzylidene-hydrazinocarbonyl)-phenyl]-benzamide] is 3.31 µM; for `COc1ccc(C(=O)Nc2ccccc2C(=O)N/N=C/c2cc(C(C)(C)C)c(O)c(C(C)(C)C)c2)cc1OC` [Compound 6, N-[2-(3,5-Di-tert-butyl-4-hydroxy-benzylidene-hydrazinocarbonyl)-phenyl]-3,4-dimethoxy-benzamide] it is 5.38 µM; for `COc1ccc(C(=O)Nc2ccccc2C(=O)N/N=C/C(C)=C/c2ccccc2)cc1OC` [Compound 7, 3,4-Dimethoxy-N-[2-(2-methyl-3-phenyl-allylidene-hydrazinocarbonyl)-phenyl]-benzamide] it is 7.15 µM.
On to `COc1ccc(C(=O)Nc2ccccc2C(=O)N/N=C/c2cc(C(F)(F)F)cc(C(F)(F)F)c2)cc1OC` [Compound 8, N-[2-(3,5-Bis-trifluoromethyl-benzylidene-hydrazinocarbonyl)-phenyl]-3,4-dimethoxy-benzamide], for which the IC50 was found to be 1.72 µM.
Same read-out and setting: for `COc1ccc(C(=O)Nc2ccccc2C(=O)N/N=C/c2cccc(C#N)c2)cc1OC` [Compound 9, N-[2-(3-Cyano-benzylidene-hydrazinocarbonyl)-phenyl]-3,4-dimethoxy-benzamide] the value was 4.26 µM.
For `COc1ccc(C(=O)Nc2ccccc2C(=O)N/N=C/c2ccccc2Br)cc1OC` [Compound 10, N-[2-(2-Bromo-benzylidene-hydrazinocarbonyl)-phenyl]-3,4-dimethoxy-benzamide], the IC50 amounted to 26.1 µM.
Still for that read-out and setting: for `COc1cc(/C=N/NC(=O)c2ccccc2NC(=O)c2ccc(OC)c(OC)c2)ccc1O` [Compound 11, N-[2-(4-Hydroxy-3-methoxy-benzylidene-hydrazinocarbonyl)-phenyl]-3,4-dimethoxy-benzamide] the value was 8.21 µM; for `COc1ccc(C(=O)Nc2ccccc2C(=O)N/N=C/c2cc(OC)c(OC)c(OC)c2)cc1OC` [Compound 12, 3,4-Dimethoxy-N-[2-(3,4,5-trimethoxy-benzylidene-hydrazinocarbonyl)-phenyl]-benzamide], 4.51 µM.
Same read-out and setting: for `COc1ccc(C(=O)Nc2ccc(Br)cc2C(=O)N/N=C/C=C/c2ccccc2)cc1OC` [Compound 13, N-[4-Bromo-2-(3-phenyl-allylidene-hydrazinocarbonyl)-phenyl]-3,4-dimethoxy-benzamide] the value was 9.22 µM.
In the case of `COc1ccc(C(=O)Nc2ccc(Br)cc2C(=O)N/N=C/c2ccccc2Br)cc1OC` [Compound 14, N-[4-Bromo-2-(2-bromo-benzylidene-hydrazinocarbonyl)-phenyl]-3,4-dimethoxy-benzamide], the IC50 worked out at 12.1 µM.
Still for that read-out and setting: for `COc1ccc(C(=O)Nc2ccccc2C(=O)N/N=C/c2cccc(F)c2)cc1OC` [Compound 15, N-[2-(3-Fluoro-benzylidene-hydrazinocarbonyl)-phenyl]-3,4-dimethoxy-benzamide] the value was 1.41 µM; for `COc1ccc(C(=O)Nc2ccccc2C(=O)N/N=C/c2ccc(F)cc2)cc1OC` [Compound 16, N-[2-(4-Fluoro-benzylidene-hydrazinocarbonyl)-phenyl]-3,4-dimethoxy-benzamide], 2.3 µM.
On the same count and under the same terms, the figure for `COc1ccc(C(=O)Nc2ccccc2C(=O)N/N=C/c2ccccc2)cc1OC` [Compound 17, N-[2-(Benzylidene-hydrazinocarbonyl)-phenyl]-3,4-dimethoxy-benzamide] is 3.59 µM; for `COc1ccc(C(=O)Nc2ccccc2C(=O)N/N=C/c2cccc(O)c2)cc1OC` [Compound 18, N-[2-(3-Hydroxy-benzylidene-hydrazinocarbonyl)-phenyl]-3,4-dimethoxy-benzamide] it is 4.03 µM.
Same read-out and setting: the figure for `COc1ccc(C(=O)Nc2ccccc2C(=O)N/N=C/c2ccc(O)cc2)cc1OC` [Compound 19, N-[2-(4-Hydroxy-benzylidene-hydrazinocarbonyl)-phenyl]-3,4-dimethoxy-benzamide] is 8.16 µM; for `COc1ccc(C(=O)Nc2ccccc2C(=O)N/N=C/c2cccc(C)c2)cc1OC` [Compound 20, 3,4-Dimethoxy-N-[2-(3-methyl-benzylidene-hydrazinocarbonyl)-phenyl]-benzamide] it is 2.83 µM; for `COc1ccc(C(=O)Nc2ccccc2C(=O)N/N=C/c2ccco2)cc1OC` [Compound 21, N-[2-(Furan-2-ylmethylene-hydrazinocarbonyl)-phenyl]-3,4-dimethoxy-benzamide] it is 21.5 µM.
`COc1ccc(C(=O)Nc2ccccc2C(=O)N/N=C/c2ccc(C)o2)cc1OC` [Compound 22, 3,4-Dimethoxy-N-[2-(5-methyl-furan-2-ylmethylene-hydrazinocarbonyl)-phenyl]-benzamide]: the IC50 is 26.7 µM.
Still for that read-out and setting: for `COc1ccc(C(=O)Nc2ccccc2C(=O)N/N=C/c2cccs2)cc1OC` [Compound 23, 3,4-Dimethoxy-N-[2-(thiophen-2-ylmethylene-hydrazinocarbonyl)-phenyl]-benzamide] the value was 9.88 µM; for `COc1ccc(C(=O)Nc2ccccc2C(=O)N/N=C/c2ccsc2)cc1OC` [Compound 24, 3,4-Dimethoxy-N-[2-(thiophen-3-ylmethylene-hydrazinocarbonyl)-phenyl]-benzamide], 20.9 µM.
The same measure, in the same setting: the figure for `COc1ccc(C(=O)Nc2ccccc2C(=O)N/N=C/c2ccc(O)cc2O)cc1OC` [Compound 25, N-[2-(2,4-Dihydroxy-benzylidene-hydrazinocarbonyl)-phenyl]-3,4-dimethoxy-benzamide] is 23.9 µM.
Same read-out and setting: the figure for `COc1ccc(C(=O)Nc2ccccc2C(=O)N/N=C/c2ccc(O)c(O)c2)cc1OC` [Compound 26, N-[2-(3,4-Dihydroxy-benzylidene-hydrazinocarbonyl)-phenyl]-3,4-dimethoxy-benzamide] is 25.4 µM; for `O=C(Nc1ccccc1C(=O)N/N=C/c1ccccc1)c1ccccc1F` [Compound 27, N-[2-(Benzylidene-hydrazinocarbonyl)-phenyl]-2-fluoro-benzamide] it is 3.63 µM.
In the case of `COc1ccc(C(=O)Nc2ccc(Br)cc2C(=O)N/N=C/c2ccccc2F)cc1OC` [Compound 28, N-[4-Bromo-2-(2-fluoro-benzylidene-hydrazinocarbonyl)-phenyl]-3,4-dimethoxy-benzamide], the IC50 amounted to 5.12 µM.
In the case of `COc1ccc(C(=O)Nc2ccc(Br)cc2C(=O)N/N=C/c2ccccc2C)cc1OC` [Compound 30, N-[4-Bromo-2-(2-methyl-benzylidene-hydrazinocarbonyl)-phenyl]-3,4-dimethoxy-benzamide], the IC50 was determined as 7.86 µM.
Same read-out and setting: for `COc1ccc(C(=O)Nc2ccc(Br)cc2C(=O)N/N=C/c2cccc(C)c2)cc1OC` [Compound 31, N-[4-Bromo-2-(3-methyl-benzylidene-hydrazinocarbonyl)-phenyl]-3,4-dimethoxy-benzamide] the value was 0.58 µM; for `COc1ccc(C(=O)Nc2ccccc2C(=O)N/N=C/c2ccc(F)c(Cl)c2)cc1OC` [Compound 32, N-[2-(3-Chloro-4-fluoro-benzylidene-hydrazinocarbonyl)-phenyl]-3,4-dimethoxy-benzamide], 1.95 µM.
